Tests used:
Fv2-casp-3 [1] = biological target: T1, Fv2-casp-3 (Homo sapiens, UniProt P62942, F37V); experiment: Western blot of processing and degradation of Fv2-casp-3 in Jurkat cells; assay type: cell-based
T1 construct: caspase-3 (same polypeptide); expressed in transfected cells; host or cells: Jurkat TAg
Description: Jurkat TAg cells were electroporated with 2 μg of plasmid, cultured 36 hours, and stimulated with drug for the indicated time period. Approximately 5×10^5 cells were lysed in 100 μl RIPA buffer (0.01M TrisHCl pH 8.0, 140 mM NaCl, 1% Triton X-100, 1 mM phenylmethylsulfonyl fluoride, 1% sodium deoxycholate, 0.1% SDS) on ice for 30 minutes. Cell debris were pelleted and supernatants were boiled in 1:1 Laemmli sample buffer (with 5% β-ME) for 5 minutes. […] Membranes were incubated with monoclonal anti-HA epitope antibody, HA.11 (BABCO) followed by polyclonal HRP-conjugated goat anti-mouse antibody (Bio-Rad). Bands were detected with SuperSignal-Chemiluminescent Substrate (Pierce).
Processing of caspase-3, and other caspases, ordinarily involves two or more cleavages after aspartic acid residues. To confirm that the CID-mediated diminution of reporter activity was caused by activation of the conditional caspases, the processing and degradation of conditional caspase-3 was directly examined. Jurkat cells were transfected 2 μg Fv2-casp-3 or Fv2-casp-3/S163. […] Following these incubations, cell extracts were analyzed by western blotting using monoclonal antibodies to an epitope tag (HA) placed at both ends of the construct.
The breakdown products of caspase-3 activation were not seen even though epitope tags were present at both ends of the protein. […] Therefore, homomultimerization of the caspases, caspase-1 and caspase-3, is sufficient for their activation.

Fv2-casp-3/S163 = biological target: T2, Fv2-casp-3/S163 (Homo sapiens, UniProt P42574+P62942, C163S/F37V); experiment: SEAP reporter assay, Jurkat TAg cells transfected with inactive Fv2-casp-3/S163; assay type: cell-based; conditions: 100 nM AP1903, enzymatically inactive caspase-3
T2 construct: caspase-3 C163S (same polypeptide); expressed in transfected cells; host or cells: Jurkat TAg
Description: Jurkat TAg cells (10^7) in log phase growth were electroporated (950 μF, 250V; Gene Pulser II) with expression plasmid and 1-2 μg SRα-SEAP. After 24 hours, transformed cells were stimulated with CID or anti-Fas antibody (CH.11, Kamiya Biomedical). After an additional 20 hours, supernatants were assayed for SEAP activity as described previously (15). Units of SEAP activity are reported directly and as a percentage of activity relative to no stimulation within the same transfections (% Relative Activity).
In contrast to caspase-1 and Fas, conditional caspase-3 alleles are not apparently autotoxic (FIGS. 7-9). With reference to FIGS. 7 and 8, Jurkat TAg cells were transiently-transfected with: 2 μg Fv2-casp-3 (open squares), or 2 μg Fv2-casp-3/S163 (closed squares). With reference to FIG. 9, Jurkat TAg cells were transfected with: 2 μg Fpk3-casp-3/S163 (closed triangles), 2 μg Fpk3-casp-3 (open squares), or 2 μg Fpk3-Δ20casp-3 (closed squares). After 20 hours, transfected cells were treated and analyzed as before. Data is representative of at least three independent experiments performed in duplicate.

JD-2a cells = experiment: Fluorescent microscopy of JD-2a cells infected with Adv-Fv1-YAMA; assay type: cell-based, human; conditions: Adv-Fv1-YAMA MOI ~25, 50 nM AP1903 for 24 hours
Description: Replication deficient (ΔE1) adenoviral vectors expressing green flourescent protein and conditional Caspase 1 (ICE) or Caspase 3 (YAMA) were engineered. These vectors independently express green fluorescent protein so that infected cells are easily identified by their green color under fluorescent microscopy.
40,000 JD-2a cells per well were plated in 24-well plates and infected at a multiplicity-of-infection (MOI) of ˜25 with Adv-Fv1-YAMA, an adenoviral vector expressing CID-regulated YAMA. […] All of the cells incubated with virus and maintained in control media appeared green, and were clearly attached and viable, similar to non-fluorescent non-infected JD-2a cells (FIG. 47b).

conditional Fas = biological target: T3, conditional Fas (Homo sapiens, UniProt P62942, F37V); experiment: Luciferase survival assay, BPH-derived smooth muscle cells transfected with conditional Fas; assay type: cell-based; conditions: with or without AP1903, 24 hours
T3 construct: Fas cytoplasmic portion (same polypeptide); expressed in transfected cells; host or cells: JD and CR-2a (smooth muscle cell lines from BPH patients)
Description: (§1) Conditional Fas, YAMA and a YAMA construct containing a single, inactivating point mutation were cotransfected with a luciferase reporter plasmid (pGL2) into JD and CR-2a cell lines. These are smooth muscle cell lines derived from prostate tissue samples taken from patients with BPH. […] Cells were then lysed and assayed for luciferase activity as a marker of cell survival.
(§2) It is worth noting that a conditional Fas-based treatment for BPH is not possible since the Fas construct was not effective in causing apoptosis in BPH derived cell lines. It is quite likely that Fas-based methods will be ineffective in many other cell types, thus severely limiting the utility of this approach.

inactivated YAMA = biological target: T4, inactivated YAMA (Homo sapiens, UniProt P42574+P62942, C163S/F37V); experiment: Luciferase survival assay, BPH-derived smooth muscle cells transfected with inactivated YAMA; assay type: cell-based; conditions: with or without AP1903, 24 hours
T4 construct: caspase-3 C163S (same polypeptide); expressed in transfected cells; host or cells: JD and CR-2a (smooth muscle cell lines from BPH patients)
Description: as §1, §2

conditional YAMA = biological target: T5, conditional YAMA (Homo sapiens, UniProt P62942, F37V); experiment: Luciferase survival assay, BPH-derived smooth muscle cells (JD, CR-2a) transfected with conditional YAMA; assay type: cell-based
T5 construct: caspase-3 / YAMA (same polypeptide); expressed in transfected cells; host or cells: JD and CR-2a (smooth muscle cell lines from BPH patients)
Description: as §1, §2

Fv2-casp-3 [2] = biological target: T1, Fv2-casp-3; experiment: SEAP reporter assay, Jurkat TAg cells transfected with Fv2-casp-3; assay type: cell-based; conditions: 2 μg Fv2-casp-3, Jurkat TAg, in the presence of AP1903
FKBP12V36 (Fv) = FKBP12V36 (Fv) (Homo sapiens, UniProt P62942, F37V); experiment: CID binding to mutant FKBP12 (F36V, Fv); conditions: relative to AP1903
S-Fv2-Casp1 = biological target: T6, S-Fv2-Casp1 (Homo sapiens, UniProt P62942, F37V); experiment: SEAP reporter assay, Jurkat TAg cells, S-Fv2-Casp1; assay type: cell-based; conditions: caspase-1 fused to two Fvs, no linker
T6 construct: caspase-1 (same polypeptide); expressed in transfected cells; host or cells: Jurkat TAg
Description: (§3) Jurkat TAg cells (10^7) in log phase growth were electroporated (950 μF, 250 V) with expression plasmid and 2 μg SRα-SEAP. […] Units of SEAP activity are reported directly and as a percentage of activity relative to no stimulation (“% Relative SEAP activity”). All experiments were repeated at least three times and representative experiments performed with duplicate samples are shown.

S-Fv3-Casp3 = biological target: T7, S-Fv3-Casp3 (Homo sapiens, UniProt P62942, F37V); experiment: SEAP reporter assay, Jurkat TAg cells, S-Fv3-Casp3; assay type: cell-based; conditions: construct containing three Fvs; read-out: IC50 (decrease in SEAP activity)
T7 construct: caspase-3 (same polypeptide); expressed in transfected cells; host or cells: Jurkat TAg
Description: as §3

RM-1 cells = conditions: single treatment with adenovirus expressing HSV-tk and ganciclovir; cited from earlier work
[3] = system: tumor cell types expressing herpes virus tk; conditions: cited from earlier work

T1 sequence (P62942 2-108 F37V): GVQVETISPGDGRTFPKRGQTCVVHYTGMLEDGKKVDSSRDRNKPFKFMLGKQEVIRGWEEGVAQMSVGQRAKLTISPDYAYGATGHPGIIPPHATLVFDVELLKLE
T5 sequence (P62942 2-108 F37V): as above
T5 sequence (P42574 2-277 partner limits assumed): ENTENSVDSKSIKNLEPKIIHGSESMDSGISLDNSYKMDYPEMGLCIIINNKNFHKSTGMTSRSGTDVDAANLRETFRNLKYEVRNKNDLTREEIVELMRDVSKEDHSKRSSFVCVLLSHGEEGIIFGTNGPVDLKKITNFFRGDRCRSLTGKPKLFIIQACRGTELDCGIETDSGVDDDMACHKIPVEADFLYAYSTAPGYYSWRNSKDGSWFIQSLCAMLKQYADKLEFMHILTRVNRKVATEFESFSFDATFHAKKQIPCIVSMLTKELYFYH
T3 sequence (P62942 2-108 F37V): as the sequence (P62942 2-108 F37V) above
T3 sequence (P25445 191-335 partner limits assumed): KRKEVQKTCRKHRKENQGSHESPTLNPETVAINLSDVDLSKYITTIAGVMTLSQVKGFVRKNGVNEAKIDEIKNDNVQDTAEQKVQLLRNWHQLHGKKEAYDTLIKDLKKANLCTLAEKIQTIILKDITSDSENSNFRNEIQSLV
T7 sequence (P62942 2-108 F37V): as the sequence (P62942 2-108 F37V) above
T7 sequence (P42574 2-277 partner limits assumed): as the sequence (P42574 2-277 partner limits assumed) above
T6 sequence (P62942 2-108 F37V): as the sequence (P62942 2-108 F37V) above
T6 sequence (P29466 2-404 partner limits assumed): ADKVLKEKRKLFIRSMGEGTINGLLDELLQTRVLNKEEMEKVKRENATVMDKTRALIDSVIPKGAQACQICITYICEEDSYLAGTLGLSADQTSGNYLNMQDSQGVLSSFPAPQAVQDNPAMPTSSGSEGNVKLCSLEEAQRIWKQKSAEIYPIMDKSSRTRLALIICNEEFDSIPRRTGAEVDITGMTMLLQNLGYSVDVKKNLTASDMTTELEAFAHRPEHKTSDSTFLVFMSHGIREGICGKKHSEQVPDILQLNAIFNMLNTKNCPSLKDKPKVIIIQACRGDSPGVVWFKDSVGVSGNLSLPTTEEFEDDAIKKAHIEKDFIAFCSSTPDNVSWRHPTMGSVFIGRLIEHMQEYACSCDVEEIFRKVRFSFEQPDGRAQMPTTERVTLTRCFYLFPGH
FKBP12V36 (Fv), sequence (P62942 whole entry F37V, the tested form may be a part): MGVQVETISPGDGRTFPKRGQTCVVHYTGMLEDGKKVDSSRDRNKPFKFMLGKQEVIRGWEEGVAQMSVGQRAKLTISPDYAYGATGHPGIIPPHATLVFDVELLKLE

CC[C@H](C(=O)N1CCCC[C@H]1C(=O)O[C@H](CCc1ccc(OC)c(OC)c1)c1cccc(OCC(=O)NCCNC(=O)COc2cccc([C@@H](CCc3ccc(OC)c(OC)c3)OC(=O)[C@@H]3CCCCN3C(=O)[C@@H](CC)c3cc(OC)c(OC)c(OC)c3)c2)c1)c1cc(OC)c(OC)c(OC)c1 [AP1903]
time to full degradation of Fv2-casp-3 (Fv2-casp-3 [1]; 100 nM AP1903): four
time to complete degradation of full-length caspase-3 (Fv2-casp-3 [1]; 500 nM AP1903): ≤ 2 h
concentration sufficient to cause the processing and degradation of the majority of Fv2-casp-3 (Fv2-casp-3 [1]; treated for eight hours, half-log dilutions): 10 nM
reduction of reporter activity (Fv2-casp-3/S163): could not reduce reporter activity
cells either dead or in the process of undergoing apoptosis (JD-2a cells): > 99%
reduction in the percentage of surviving cells (conditional Fas): no significant reduction
reduction in the percentage of surviving cells (inactivated YAMA): no significant reduction
reduction in reporter activity (conditional YAMA; 100 μM AP1903 for 24 hours): 82%
luciferase activity (conditional YAMA; treated with 100 μM AP1903 for 24 hours, 668±67 without AP1903): 119±13
reduction in reporter activity (Fv2-casp-3 [2]): ≈ 65%

FK1012
lower affinity of FK1012 for Fv versus AP1903 (FKBP12V36 (Fv)): ten-fold
IC50 (S-Fv2-Casp1): 1 nM
IC50 (S-Fv3-Casp3): ~20 nM

Nc1nc(O)c2ncn(COC(CO)CO)c2n1 [ganciclovir]
reduction in lung colonization (RM-1 cells): 40%
dose up to which the cell line was essentially immune ([3]; ESB cell line): up to 1 μg/mL
time necessary to effect a substantial amount of cell death ([3]; high doses of ganciclovir): 6 to 22 days

Reference: patent US20040040047A1 (priority 1998, published 2004)
